Data reported in patent US11261211B2, “19-NOR neuroactive steroids and methods of use thereof” (Sage Therapeutics, Inc., priority 2013, dated 2022).

Assays:
α1β2γ2 GABAA receptor = α1β2γ2 GABAA receptor (Homo sapiens (Human), UniProt P14867+P47870); assay: Patch clamp electrophysiology of recombinant α1β2γ2 GABAA receptors in LTK cells; type: cell-based; details: for activity at 10 µM / Emax: LTK; for activity at 10 µM / α1β2γ2 GABA Qpatch in Ltk (Efficacy at 10 μm): 10 μM compound, Qpatch, Ltk cells, GABA EC20 2 μM; for activity at 10 µM: read-out: α1β2γ2 GABA Qpatch in Ltk (Efficacy at 10 μm); for Emax / EC50: potentiation of GABA EC20 (2 μM) current; for Emax: read-out: GABAa alpha1 (α1β2γ2) Emax (%); for EC50: read-out: GABAa alpha1 (α1β2γ2)EC50
In short: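 Whole-cell voltage clamp at −80 mV, room temperature, in LTK cells stably expressing α1β2γ2 or CHO cells transiently expressing α4β3δ, manual or QPatch. Test article (0.01–10 μM, increasing, 30 s preincubation) then 2 μM GABA (EC20) for 2 s; potentiation = peak current with compound relative to GABA alone ×100.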

α4β3δ GABAA receptor = α4β3δ GABAA receptor (Homo sapiens (Human), UniProt P28472+P48169); assay: Patch clamp electrophysiology of recombinant α4β3δ GABAA receptors in CHO cells; type: cell-based; details: 10 μM compound, GABA EC20 2 μM; for activity at 10 µM: manual patch, read-out: α4β3δ GABA Manual Patch in CHO (Efficacy at 10 μM)
Procedure: Cellular electrophysiology is used to measure the pharmacological properties of our GABAA receptor modulators in heterologous cell systems. Each compound is tested for its ability to affect GABA mediated currents at a submaximal agonist dose (GABA EC20=2 μM). LTK cells are stably transfected with the α1β2γ2 subunits of the GABA receptor and CHO cells are transiently transfected with the α4β3δ subunits via the Lipofecatamine method. Cells were passaged at a confluence of about 50-80% and then seeded onto 35 mm sterile culture dishes containing 2 ml culture complete medium without antibiotics or antimycotics. Confluent clusters of cells are electrically coupled (Pritchett et al., 1988). Because responses in distant cells are not adequately voltage clamped and because of uncertainties about the extent of coupling (Verdoorn et al., 1990), cells were cultivated at a density that enables the recording of single cells (without visible connections to other cells).
Whole cell currents were measured with HEKA EPC-10 amplifiers using PatchMaster software or by using the high throughput QPatch platform (Sophion). Bath solution for all experiments contained (in mM): NaCl 137 mM, KCl 4 mM, CaCl2 1.8 mM, MgCl2 1 mM, HEPES 10 mM, D-Glucose 10 mM, pH (NaOH) 7.4. In some cases 0.005% cremophor was also added. Intracellular (pipette) solution contained: KCl 130 mM, MgCl2 1 mM, Mg-ATP 5 mM, HEPES 10 mM, EGTA 5 mM, pH 7.2. During experiments, cells and solutions were maintained at room temperature (19° C.-30° C.). For manual patch clamp recordings, cell culture dishes were placed on the dish holder of the microscope and continuously perfused (1 ml/min) with bath solution. After formation of a Gigaohm seal between the patch electrodes and the cell (pipette resistance range: 2.5 MΩ-6.0 MΩ; seal resistance range: >1 GΩ) the cell membrane across the pipette tip was ruptured to assure electrical access to the cell interior (whole-cell patch-configuration). For experiments using the QPatch system, cells were transferred as suspension to the QPatch system in the bath solution and automated whole cell recordings were performed.
Cells were voltage clamped at a holding potential of −80 mV. For the analysis of test articles, GABA receptors were stimulated by 2 μM GABA after sequential pre-incubation of increasing concentrations of the test article. Pre-incubation duration was 30 s and the duration of the GABA stimulus was 2 s. Test articles were dissolved in DMSO to form stock solutions (10 mM). Test articles were diluted to 0.01, 0.1, 1, and 10 μM in bath solution. All concentrations of test articles were tested on each cell. The relative percentage potentiation was defined as the peak amplitude in response to GABA EC20 in the presence of the test article divided by the peak amplitude in response to GABA EC20 alone, multiplied by 100.

[1] = target: rat brain cortical membranes ([35S]-TBPS binding, GABA receptor complex); assay: Steroid inhibition of [35S]-TBPS binding; details: 3 nM [35S]-TBPS, in the presence of 5 μM GABA
Procedure: TBPS binding assays using rat brain cortical membranes in the presence of 5 μM GABA has been described (Gee et al, J. Pharmacol. Exp. Ther. 1987, 241, 346-353; Hawkinson et al, Mol. Pharmacol. 1994, 46, 977-985; Lewin, A. H et al., Mol. Pharmacol. 1989, 35, 189-194).
Briefly, cortices are rapidly removed following decapitation of carbon dioxide-anesthetized Sprague-Dawley rats (200-250 g). The cortices are homogenized in 10 volumes of ice-cold 0.32 M sucrose using a glass/teflon homogenizer and centrifuged at 1500×g for 10 min at 4° C. The resultant supernatants are centrifuged at 10,000×g for 20 min at 4° C. to obtain the P2 pellets. The P2 pellets are resuspended in 200 mM NaCl/50 mM Na-K phosphate pH 7.4 buffer and centrifuged at 10,000×g for 10 min at 4° C. This washing procedure is repeated twice and the pellets are resuspended in 10 volumes of buffer. Aliquots (100 μL) of the membrane suspensions are incubated with 3 nM [^35S]-TBPS and 5 μL aliquots of test drug dissolved in dimethyl sulfoxide (DMSO) (final 0.5%) in the presence of 5 μM GABA. The incubation is brought to a final volume of 1.0 mL with buffer. […] Filter bound radioactivity is measured by liquid scintillation spectrometry. […]

SMILES	activity at 10 µM (α1β2γ2 GABAA receptor) [%]	activity at 10 µM (α4β3δ GABAA receptor) [%]	further results
C[C@]12CC[C@H]3[C@@H](CC[C@H]4C[C@@](O)(CF)CC[C@@H]43)[C@@H]1CC[C@@H]2C(=O)Cn1cc2ccc(F)cc2n1 [SG-20]	100 to 500	100 to 500	–
Cc1cccc2nn(CC(=O)[C@H]3CC[C@H]4[C@@H]5CC[C@@H]6C[C@](C)(O)CC[C@@H]6[C@H]5CC[C@]34C)nc12 [SA-69]	100 to 500	100 to 500	–
C[C@@]1(O)CC[C@H]2[C@H](CC[C@@H]3[C@@H]2CC[C@]2(C)[C@@H](C(=O)Cn4cc5ccc(F)cc5n4)CC[C@@H]32)C1 [SA-22]	> 500	100 to 500	–
C[C@@]1(O)CC[C@H]2[C@H](CC[C@@H]3[C@@H]2CC[C@]2(C)[C@@H](C(=O)Cn4cc5ncccc5n4)CC[C@@H]32)C1 [SA-4]	–	–	α1β2γ2 GABA Qpatch in Ltk (Efficacy at 10 μm) (α1β2γ2 GABAA receptor): C (“C” indicates an efficacy value of >500%); Emax (α1β2γ2 GABAA receptor): 500 to 1000%; EC50 (α1β2γ2 GABAA receptor): 1000 to 2000 nM; α4β3δ GABA Manual Patch in CHO (Efficacy at 10 μM) (α4β3δ GABAA receptor): B (“B” indicates an efficacy value of >100-500%)
COC[C@@]1(O)CC[C@H]2[C@@H](CC[C@@H]3[C@@H]2CC[C@]2(C)[C@@H](C(=O)Cn4cc5ccncc5n4)CC[C@@H]32)C1 [SB-45]	100 to 500	100 to 500	–
C[C@@]1(O)CC[C@H]2[C@H](CC[C@@H]3[C@@H]2CC[C@]2(C)[C@@H](C(=O)Cn4nc5ccccc5n4)CC[C@@H]32)C1 [SA-2]	100 to 500	> 500	Emax (α1β2γ2 GABAA receptor): 0 to 500%; EC50 (α1β2γ2 GABAA receptor): 500 to 1000 nM
C[C@@]1(O)CC[C@H]2[C@H](CC[C@@H]3[C@@H]2CC[C@]2(C)[C@@H](C(=O)Cn4nc5cccnc5n4)CC[C@@H]32)C1 [SA-14]	> 500	100 to 500	–
C[C@@]1(O)CC[C@H]2[C@H](CC[C@@H]3[C@@H]2CC[C@]2(C)[C@@H](C(=O)Cn4cc5ccccc5n4)CC[C@@H]32)C1 [SA-6]	–	–	α1β2γ2 GABA Qpatch in Ltk (Efficacy at 10 μm) (α1β2γ2 GABAA receptor): C (“C” indicates an efficacy value of >500%); Emax (α1β2γ2 GABAA receptor): 500 to 1000%; EC50 (α1β2γ2 GABAA receptor): > 2000 nM; α4β3δ GABA Manual Patch in CHO (Efficacy at 10 μM) (α4β3δ GABAA receptor): B (“B” indicates an efficacy value of >100-500%)
C[C@@]1(O)CC[C@H]2[C@H](CC[C@@H]3[C@@H]2CC[C@]2(C)[C@@H](C(=O)Cn4cc5cc(F)ccc5n4)CC[C@@H]32)C1 [SA-16]	> 500	100 to 500	–
C[C@@]1(O)CC[C@H]2[C@H](CC[C@@H]3[C@@H]2CC[C@]2(C)[C@@H](C(=O)Cn4nc5cc(F)c(F)cc5n4)CC[C@@H]32)C1 [SA-53]	–	–	IC50 [1]: 10 to 50 nM
C[C@@]1(O)CC[C@H]2[C@@H](CC[C@@H]3[C@@H]2CC[C@]2(C)[C@@H](C(=O)Cn4cc5ccncc5n4)CC[C@@H]32)C1 [SB-9]	–	–	α1β2γ2 GABA Qpatch in Ltk (Efficacy at 10 μm) (α1β2γ2 GABAA receptor): C (“C” indicates an efficacy value of >500%); α4β3δ GABA Manual Patch in CHO (Efficacy at 10 μM) (α4β3δ GABAA receptor): B (“B” indicates an efficacy value of >100-500%)
C[C@]12CC[C@H]3[C@@H](CC[C@@H]4C[C@@](O)(CF)CC[C@@H]43)[C@@H]1CC[C@@H]2C(=O)Cn1cc2ncccc2n1 [SA-83]	100 to 500	100 to 500	–
C[C@@]1(O)CC[C@H]2[C@H](CC[C@@H]3[C@@H]2CC[C@]2(C)[C@@H](C(=O)Cn4nc5cc(Cl)cnc5n4)CC[C@@H]32)C1 [SA-57]	> 500	100 to 500	–
COC[C@@]1(O)CC[C@H]2[C@H](CC[C@@H]3[C@@H]2CC[C@]2(C)[C@@H](C(=O)Cn4nc5ccncc5n4)CC[C@@H]32)C1 [SA-125]	> 500	100 to 500	–
C[C@@]1(O)CC[C@H]2[C@H](CC[C@@H]3[C@@H]2CC[C@]2(C)[C@@H](C(=O)Cn4nc5ccc(Cl)cc5n4)CC[C@@H]32)C1 [SA-41]	> 500	100 to 500	–
C[C@@]1(O)CC[C@H]2[C@H](CC[C@@H]3[C@@H]2CC[C@]2(C)[C@@H](C(=O)Cn4cc5cccnc5n4)CC[C@@H]32)C1 [SA-18]	–	–	α1β2γ2 GABA Qpatch in Ltk (Efficacy at 10 μm) (α1β2γ2 GABAA receptor): C (“C” indicates an efficacy value of >500%); Emax (α1β2γ2 GABAA receptor): 500 to 1000%; EC50 (α1β2γ2 GABAA receptor): > 2000 nM; α4β3δ GABA Manual Patch in CHO (Efficacy at 10 μM) (α4β3δ GABAA receptor): C (“C” indicates an efficacy value of >500%)
C[C@@]1(O)CC[C@H]2[C@H](CC[C@@H]3[C@@H]2CC[C@]2(C)[C@@H](C(=O)Cn4cc5cc(Cl)ncc5n4)CC[C@@H]32)C1 [SA-30]	> 500	> 500	–
Cc1cc2cn(CC(=O)[C@H]3CC[C@H]4[C@@H]5CC[C@@H]6C[C@](C)(O)CC[C@@H]6[C@H]5CC[C@]34C)nc2cn1 [SA-24]	100 to 500	100 to 500	–
